ChEMBL document CHEMBL1201862, “PubChem BioAssay data set” (2004)
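Compound exposure: 48 hours, 5 concentrations, 96-well plates. GI50 = concentration required for 50% inhibition of growth.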 Active and inactive are the calls of the source. No stated cut-off is given here; in the data, active = GI50 up to about 1.1 µM and inactive = higher.

What was measured:
Assay in all cases: DTP human tumour cell line panel, 48 h
PC-3 = system: PC-3
OVCAR-3 = system: OVCAR-3
CAKI-1 = system: CAKI-1
RPMI-8226 = system: RPMI-8226
HCT-15 = system: HCT-15
NCI-H522 = system: NCI-H522
SN12C = system: SN12C
DU-145 = system: DU-145
SF-295 = system: SF-295
786-0 = system: 786-0
OVCAR-5 = system: OVCAR-5
UO-31 = system: UO-31
Malme-3M = system: Malme-3M
M14 = system: M14
NCI/ADR-RES = system: NCI/ADR-RES
OVCAR-8 = system: OVCAR-8
NCI-H460 = system: NCI-H460
SNB-75 = system: SNB-75
HT-29 = system: HT-29
A498 = system: A498
SK-OV-3 = system: SK-OV-3
K562 = system: K562
MDA-MB-435 = system: MDA-MB-435
Hs-578T = system: Hs-578T
NCI-H23 = system: NCI-H23
RXF 393 = system: RXF 393
KM12 = system: KM12
SK-MEL-2 = system: SK-MEL-2
HL-60 = system: HL-60
EKVX = system: EKVX
MOLT-4 = system: MOLT-4
HOP-62 = system: HOP-62
IGROV-1 = system: IGROV-1
SR = system: SR
SK-MEL-28 = system: SK-MEL-28
NCI-H226 = system: NCI-H226
HCT-116 = system: HCT-116
MCF7 = system: MCF7
SF-539 = system: SF-539
OVCAR-4 = system: OVCAR-4
HOP-92 = system: HOP-92
CCRF-CEM = system: CCRF-CEM
T47D = system: T47D
SNB-19 = system: SNB-19
BT-549 = system: BT-549
TK-10 = system: TK-10
SK-MEL-5 = system: SK-MEL-5
LOX IMVI = system: LOX IMVI
MDA-MB-231 = system: MDA-MB-231
ACHN = system: ACHN
MDA-N = system: MDA-N
COLO 205 = system: COLO 205
A549 = system: A549
UACC-257 = system: UACC-257
U-251 = system: U-251
SW-620 = system: SW-620
SF-268 = system: SF-268
UACC-62 = system: UACC-62

C(=N\c1ccc(-c2nc3ccccc3[nH]2)cc1)/c1cccs1
GI50 (PC-3): 73.1 µM (inactive)
GI50 (OVCAR-3): 49.7 µM (inactive)
GI50 (CAKI-1): > 100 µM (inactive)
GI50 (RPMI-8226): 52 µM (inactive)
GI50 (HCT-15): 84.9 µM
GI50 (NCI-H522): 62.8 µM (inactive)
GI50 (SN12C): > 100 µM (inactive)
GI50 (DU-145): > 100 µM (inactive)
GI50 (SF-295): 75.7 µM (inactive)
GI50 (786-0): > 100 µM (inactive)
GI50 (OVCAR-5): > 100 µM (inactive)
GI50 (UO-31): 31.2 µM (inactive)
GI50 (Malme-3M): > 100 µM (inactive)
GI50 (M14): > 100 µM (inactive)
GI50 (NCI/ADR-RES): 43 µM (inactive)
GI50 (OVCAR-8): 49.9 µM (inactive)
GI50 (NCI-H460): > 100 µM (inactive)
GI50 (SNB-75): 81.1 µM (inactive)
GI50 (HT-29): > 100 µM (inactive)
GI50 (A498): > 100 µM (inactive)
GI50 (SK-OV-3): > 100 µM (inactive)
GI50 (K562): 81.7 µM (inactive)
GI50 (MDA-MB-435): > 100 µM (inactive)
GI50 (Hs-578T): > 100 µM (inactive)
GI50 (NCI-H23): > 100 µM (inactive)
GI50 (RXF 393): 56.6 µM (inactive)
GI50 (KM12): 58.1 µM (inactive)
GI50 (SK-MEL-2): > 100 µM (inactive)
GI50 (HL-60): 22 µM (inactive)
GI50 (EKVX): > 100 µM (inactive)
GI50 (MOLT-4): 29.9 µM (inactive)
GI50 (HOP-62): > 100 µM (inactive)
GI50 (IGROV-1): 19.8 µM (inactive)
GI50 (SR): 45.3 µM (inactive)
GI50 (SK-MEL-28): > 100 µM (inactive)
GI50 (NCI-H226): > 100 µM (inactive)
GI50 (HCT-116): > 100 µM (inactive)
GI50 (MCF7): 8.91 µM (inactive)
GI50 (SF-539): > 100 µM (inactive)
GI50 (OVCAR-4): > 100 µM (inactive)
GI50 (HOP-92): 17.7 µM (inactive)
GI50 (CCRF-CEM): 22 µM (inactive)
GI50 (T47D): 31.9 µM (inactive)
GI50 (SNB-19): > 100 µM (inactive)
GI50 (BT-549): 27.4 µM (inactive)
GI50 (TK-10): > 100 µM (inactive)
GI50 (SK-MEL-5): 54 µM (inactive)
GI50 (LOX IMVI): > 100 µM (inactive)
GI50 (MDA-MB-231): 51.4 µM (inactive)
GI50 (ACHN): > 100 µM (inactive)
GI50 (MDA-N): > 100 µM (inactive)
GI50 (COLO 205): 97.5 µM (inactive)
GI50 (A549): > 100 µM (inactive)
GI50 (UACC-257): > 100 µM (inactive)
GI50 (U-251): 89.7 µM (inactive)
GI50 (SW-620): 96.4 µM (inactive)
GI50 (SF-268): > 100 µM (inactive)

O=C(O)CSC1=NCCN1
GI50 (PC-3): > 100 µM (inactive)
GI50 (OVCAR-3): > 100 µM (inactive)
GI50 (CAKI-1): > 100 µM (inactive)
GI50 (RPMI-8226): > 100 µM (inactive)
GI50 (HCT-15): > 100 µM
GI50 (NCI-H522): > 100 µM (inactive)
GI50 (SN12C): > 100 µM (inactive)
GI50 (DU-145): > 100 µM (inactive)
GI50 (SF-295): > 100 µM (inactive)
GI50 (786-0): > 100 µM (inactive)
GI50 (OVCAR-5): > 100 µM (inactive)
GI50 (UO-31): > 100 µM (inactive)
GI50 (Malme-3M): > 100 µM (inactive)
GI50 (M14): > 100 µM (inactive)
GI50 (NCI/ADR-RES): > 100 µM (inactive)
GI50 (OVCAR-8): > 100 µM (inactive)
GI50 (NCI-H460): > 100 µM (inactive)
GI50 (SNB-75): > 100 µM (inactive)
GI50 (HT-29): > 100 µM (inactive)
GI50 (A498): > 100 µM (inactive)
GI50 (SK-OV-3): > 100 µM (inactive)
GI50 (K562): > 100 µM (inactive)
GI50 (MDA-MB-435): > 100 µM (inactive)
GI50 (Hs-578T): > 100 µM (inactive)
GI50 (NCI-H23): > 100 µM (inactive)
GI50 (RXF 393): > 100 µM (inactive)
GI50 (KM12): > 100 µM (inactive)
GI50 (SK-MEL-2): > 100 µM (inactive)
GI50 (EKVX): > 100 µM (inactive)
GI50 (MOLT-4): > 100 µM (inactive)
GI50 (HOP-62): > 100 µM (inactive)
GI50 (IGROV-1): > 100 µM (inactive)
GI50 (SR): > 100 µM (inactive)
GI50 (SK-MEL-28): > 100 µM (inactive)
GI50 (HCT-116): > 100 µM (inactive)
GI50 (MCF7): > 100 µM (inactive)
GI50 (SF-539): > 100 µM (inactive)
GI50 (OVCAR-4): > 100 µM (inactive)
GI50 (HOP-92): > 100 µM (inactive)
GI50 (CCRF-CEM): > 100 µM (inactive)
GI50 (T47D): > 100 µM (inactive)
GI50 (SNB-19): > 100 µM (inactive)
GI50 (BT-549): > 100 µM (inactive)
GI50 (TK-10): > 100 µM (inactive)
GI50 (SK-MEL-5): > 100 µM (inactive)
GI50 (LOX IMVI): > 100 µM (inactive)
GI50 (MDA-MB-231): > 100 µM (inactive)
GI50 (ACHN): > 100 µM (inactive)
GI50 (MDA-N): > 100 µM (inactive)
GI50 (COLO 205): > 100 µM (inactive)
GI50 (A549): > 100 µM (inactive)
GI50 (U-251): > 100 µM (inactive)
GI50 (UACC-62): > 100 µM (inactive)
GI50 (SW-620): > 100 µM (inactive)
GI50 (SF-268): > 100 µM (inactive)

C=CCN(C(=O)OC(C)(C)C)[C@H](C)C(=O)N[C@@H](C)C(=O)OC
GI50 (PC-3): > 100 µM (inactive)
GI50 (OVCAR-3): > 100 µM (inactive)
GI50 (CAKI-1): > 100 µM (inactive)
GI50 (RPMI-8226): > 100 µM (inactive)
GI50 (HCT-15): > 100 µM
GI50 (NCI-H522): > 100 µM (inactive)
GI50 (SN12C): > 100 µM (inactive)
GI50 (DU-145): > 100 µM (inactive)
GI50 (SF-295): > 100 µM (inactive)
GI50 (786-0): > 100 µM (inactive)
GI50 (OVCAR-5): > 100 µM (inactive)
GI50 (UO-31): > 100 µM (inactive)
GI50 (Malme-3M): > 100 µM (inactive)
GI50 (M14): > 100 µM (inactive)
GI50 (NCI/ADR-RES): > 100 µM (inactive)
GI50 (OVCAR-8): > 100 µM (inactive)
GI50 (HT-29): > 100 µM (inactive)
GI50 (A498): > 100 µM (inactive)
GI50 (SK-OV-3): > 100 µM (inactive)
GI50 (K562): > 100 µM (inactive)
GI50 (MDA-MB-435): > 100 µM (inactive)
GI50 (Hs-578T): > 100 µM (inactive)
GI50 (NCI-H23): > 100 µM (inactive)
GI50 (KM12): > 100 µM (inactive)
GI50 (SK-MEL-2): > 100 µM (inactive)
GI50 (HL-60): 1.2 µM (inactive)
GI50 (EKVX): > 100 µM (inactive)
GI50 (MOLT-4): > 100 µM (inactive)
GI50 (HOP-62): > 100 µM (inactive)
GI50 (IGROV-1): > 100 µM (inactive)
GI50 (SR): > 100 µM (inactive)
GI50 (SK-MEL-28): > 100 µM (inactive)
GI50 (NCI-H226): > 100 µM (inactive)
GI50 (HCT-116): > 100 µM (inactive)
GI50 (MCF7): > 100 µM (inactive)
GI50 (SF-539): > 100 µM (inactive)
GI50 (OVCAR-4): > 100 µM (inactive)
GI50 (HOP-92): > 100 µM (inactive)
GI50 (CCRF-CEM): 36 µM (inactive)
GI50 (T47D): > 100 µM (inactive)
GI50 (SNB-19): > 100 µM (inactive)
GI50 (BT-549): > 100 µM (inactive)
GI50 (SK-MEL-5): > 100 µM (inactive)
GI50 (LOX IMVI): > 100 µM (inactive)
GI50 (MDA-MB-231): > 100 µM (inactive)
GI50 (ACHN): > 100 µM (inactive)
GI50 (MDA-N): > 100 µM (inactive)
GI50 (COLO 205): > 100 µM (inactive)
GI50 (A549): > 100 µM (inactive)
GI50 (U-251): > 100 µM (inactive)
GI50 (UACC-62): > 100 µM (inactive)
GI50 (SW-620): > 100 µM (inactive)
GI50 (SF-268): > 100 µM (inactive)
